In patent publication US6407233B1, “Halogen pyrimidines and its use thereof as parasite abatement means” (Bayer Aktiengesellschaft, priority 1996, dated 2002):

What was measured:
[1] = tested on: Pseudocercosporella herpotrichoides; assay: Pseudocercosporella herpotrichoides test (wheat)/protective; assay type: in vivo; conditions: protective, application rate 250 g/ha, evaluated 21 days after inoculation
Description: The test is evaluated 21 days after inoculation.

[2] = tested on: Fusarium nivale var. majus; assay: Fusarium nivale (var. majus) test (wheat)/protective; conditions: protective, application rate 250 g/ha, evaluated 4 days after inoculation
[3] = tested on: Fusarium nivale var. nivale; assay: Fusarium nivale (var. nivale) test (wheat)/curative; conditions: curative (sprayed 24 hours after inoculation), application rate 250 g/ha, evaluated 4 days after inoculation
[4] = tested on: Fusarium nivale var. nivale; assay: Fusarium nivale (var. nivale) test (wheat)/protective; conditions: protective, application rate 250 g/ha, evaluated 4 days after inoculation
[5] = tested on: Erysiphe graminis f.sp. hordei; assay: Erysiphe test (barley)/curative; assay type: in vivo; conditions: curative (sprayed 48 hours after inoculation), application rate 250 g/ha, evaluated 7 days after inoculation
[6] = tested on: Erysiphe graminis f.sp. hordei; assay: Erysiphe test (barley)/protective; assay type: in vivo; conditions: protective, application rate 250 g/ha, evaluated 7 days after inoculation
Description: The test is evaluated 7 days after the inoculation.

`CON=C(C1=NOCCO1)c1ccccc1Oc1ncnc(Oc2ccccc2Cn2cncn2)c1F` [Example 71] was tested, and the “efficacy in comparison with the untreated control” value (“efficacy in comparison” below) [1] was 100%.
`CON=C(C1=NOCCO1)c1ccccc1Oc1ncnc(Oc2ccccc2C(=O)NCc2ccccc2)c1F` [Example 69] was tested, and the “efficacy in comparison” value [1] was 100%.
In the case of `CON=C(C1=NOCCO1)c1ccccc1Oc1ncnc(Oc2ccccc2OCc2ccccc2)c1F` [Example 33], the “efficacy in comparison” value [2] is reported as 100%.
For `CON=C(C1=NOCCO1)c1ccccc1Oc1ncnc(Oc2cccc3c2CC(C)(C)O3)c1F` [Example 42], the “efficacy in comparison” value [2] was 100%.
With `C=C(C)Cc1ccccc1Oc1ncnc(Oc2ccccc2C(=NOC)C2=NOCCO2)c1F` [Example 31] the “efficacy in comparison” value [3] was 100%.
With `CCCc1ccccc1Oc1ncnc(Oc2ccccc2C(=NOC)C2=NOCCO2)c1F` [Example 34] the “efficacy in comparison” value [4] was 100% and the “efficacy in comparison” value [3] was 100%.
With `CO/N=C(/C1=NOCCO1)c1ccccc1Oc1ncnc(Oc2ccccc2Cl)c1F` [Example 1, 3-{1-[2-(4-<2-chlorophenoxy>-5-fluoropyrimid-6-yloxy)-phenyl]-1-(methoximino)-methyl}-5,6-dihydro-1,4,2-dioxazine] the “efficacy in comparison” value [5] was 100%.
In the case of `CON=C(C1=NOCCO1)c1ccccc1Oc1ncnc(Oc2cc(C)cc(C)c2C)c1F` [Example 14], the “efficacy in comparison” value [2] is reported as 100%.
`CON=C(C1=NOCCO1)c1ccccc1Oc1ncnc(Oc2ccccc2C2OCC(C)(C)CO2)c1F` [Example 59] was tested, and the “efficacy in comparison” value [6] was 100%.
